# US12258354B2, “AhR modulators” (IDEAYA BIOSCIENCES, INC., priority 2018, dated 2025)
# Biological target: T1, hAhR (Homo sapiens, UniProt P35869)
# T1 construct: Stably integrated DRE-luciferase cell lines were generated by transducing the both cell lines with Cignal XRE luciferase reporter; endogenous in cells; host or cells: HEPG2 DRE-Luc cells (only the XRE luciferase reporter was transduced)
# T1 sequence (P35869 11-848): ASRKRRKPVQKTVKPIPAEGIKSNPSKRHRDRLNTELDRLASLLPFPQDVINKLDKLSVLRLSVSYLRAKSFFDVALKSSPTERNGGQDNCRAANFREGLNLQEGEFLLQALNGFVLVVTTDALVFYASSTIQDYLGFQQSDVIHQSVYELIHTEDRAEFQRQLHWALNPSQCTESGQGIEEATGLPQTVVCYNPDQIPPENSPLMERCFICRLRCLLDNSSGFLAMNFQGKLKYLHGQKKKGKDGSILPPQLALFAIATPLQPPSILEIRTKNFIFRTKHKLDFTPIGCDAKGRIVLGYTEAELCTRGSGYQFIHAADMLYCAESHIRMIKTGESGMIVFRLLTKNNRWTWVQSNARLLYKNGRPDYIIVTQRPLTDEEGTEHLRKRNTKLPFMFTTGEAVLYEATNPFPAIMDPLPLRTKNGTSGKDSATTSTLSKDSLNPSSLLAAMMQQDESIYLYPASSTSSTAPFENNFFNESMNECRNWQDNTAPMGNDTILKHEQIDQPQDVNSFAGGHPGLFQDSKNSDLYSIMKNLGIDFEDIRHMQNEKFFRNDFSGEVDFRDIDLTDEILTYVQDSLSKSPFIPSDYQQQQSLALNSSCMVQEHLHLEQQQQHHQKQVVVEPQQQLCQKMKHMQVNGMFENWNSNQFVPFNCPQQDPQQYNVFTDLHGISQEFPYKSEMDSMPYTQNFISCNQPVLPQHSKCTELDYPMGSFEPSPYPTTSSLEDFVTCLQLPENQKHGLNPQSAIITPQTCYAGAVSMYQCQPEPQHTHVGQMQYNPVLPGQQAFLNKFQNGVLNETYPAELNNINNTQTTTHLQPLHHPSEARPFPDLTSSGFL
# Test: DRE-luciferase transcriptional reporter assay in HEPG2 DRE-Luc cells, TCDD-induced (antagonist mode)
# Type: cell-based
# Details: relative IC50, 3 nM TCDD, 24-hour incubation, firefly luciferase readout
# Procedure, shortened: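 Stable DRE(XRE)-luciferase HEPG2 clone seeded in OptiMEM with 0.5% heat-inactivated FBS, then given a semi-log compound dilution plus TCDD at 3 nM final. After 24 h, cells were lysed and firefly luminescence read. Response was normalised between TCDD and vehicle, and relative IC50 was taken as half-reduction between the fitted curve plateaus.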
row,Structure (SMILES),IC50 [nM]
1,"Cc1cc(-c2ncc3cc(C(F)(F)F)ccc3n2)ccc1N1CCn2nc(CN3CCOC(C)C3)c(C)c2C1=O (centres unmarked) [compound 091, 3-methyl-5-(2-methyl-4-(6-(trifluoromethyl)quinazolin-2-yl)phenyl)-2-((2-methylmorpholino)methyl)-6,7-dihydropyrazolo[1,5-a]pyrazin-4 (5H)-one]",< 200
2,"Cc1cc(-c2ncc3cc(C(F)(F)F)ccc3n2)ccc1N1CCn2nc(C(C)O)cc2C1=O (centres unmarked) [compound 092, 2-(1-hydroxyethyl)-5-(2-methyl-4-(6-(trifluoromethyl)quinazolin-2-yl)phenyl)-6,7-dihydropyrazolo[1,5-a]pyrazin-4 (5H)-one]",< 200
